This is an account of results in patent US4335211A, “Process for producing optically active cephalosporin analogs” (Kyowa Hakko Kogyo Co., Ltd., priority 1979, dated 1982).

The assay is described as follows: antimicrobial activity (statement in words). The class given is cell-based. The following applies: less polar isomer (A) versus more polar isomer (B).

Regarding `N[C@@H](C(=O)N[C@@H]1C(=O)N2C(C(=O)O)=C(Cl)CC[C@H]12)c1ccccc1` [Example 1, (6R, 7S) 7-(R)-phenylglycinamido-3-chloro-1-azabicyclo[4,2,0]oct-2-en-8-on-2-carboxylic acid], the antimicrobial activity result is “greater antimicrobial activity”.
